In BigSolDB 2.1:

O=C(Nc1ccncc1)c1cc(C(=O)Nc2ccncc2)cc(C(=O)Nc2ccncc2)c1
solubility (mole fraction)
Conditions | 283.15 K | 288.15 K | 293.15 K | 298.15 K | 303.15 K | 313.15 K | 323.15 K
in 2-butanone | 0.00034 | – | 0.000455 | – | 0.000519 | 0.000577 | 0.000675
in acetone | 6.66e-06 | – | 1.54e-05 | – | 1.86e-05 | 2.5e-05 | 3.64e-05
in acetonitrile | 7.35e-05 | – | 9.53e-05 | – | 0.00012 | 0.000146 | 0.000183
in dichloromethane | 3.08e-05 | 4.23e-05 | 5.41e-05 | 6e-05 | 6.77e-05 | – | –
in ethanol | 4.73e-05 | – | 6.07e-05 | – | 7.59e-05 | 8.97e-05 | 0.000104
in ethyl acetate | 0.000114 | – | 0.000137 | – | 0.000153 | 0.000178 | 0.000196
in isopropanol | 0.000265 | – | 0.000302 | – | 0.000355 | 0.000405 | 0.000431
in methanol | 5.21e-05 | – | 6.76e-05 | – | 9.65e-05 | 0.00013 | 0.000163
in n-butanol | 0.000156 | – | 0.0002 | – | 0.000235 | 0.000297 | 0.000371
in n-hexane | 1.15e-05 | – | 2.45e-05 | – | 4.03e-05 | 5.54e-05 | 6.95e-05
in n-propanol | 0.000217 | – | 0.000244 | – | 0.000255 | 0.000277 | 0.00029
in water | 4.65e-06 | – | 5.71e-06 | – | 7.83e-06 | 8.34e-06 | 1.6e-05
